The values that follow come from paper PMC4595804, “A strategy to discover decoy chemokine ligands with an anti-inflammatory activity” (Scientific Reports, 2015).

The target in one series is T1, CCL22 (Homo sapiens, UniProt O00626).
T1 construct: codes for the mature CCL17 or CCL22 with an N-terminal thioredoxin-hexahistidin (TRX- (His)6) tag; thioredoxin (TRX) (N, cleaved yes); (His)6 (N, cleaved yes); made in house; host or cells: E. coli BL21 (DE3)
T1 sequence (O00626 25-93): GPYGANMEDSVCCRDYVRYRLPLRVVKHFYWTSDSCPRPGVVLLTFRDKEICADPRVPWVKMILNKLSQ
In words: TRIC-r calcium assay, neutraligand protocol: compound preincubated with CCL22, EGFP-CCR4+Gqi5+ HEK cells. Particulars: for IC50: 5 nM CCL22 preincubated 1 h with compound, 21 °C, read-out: IC50 for CCL22 neutralization (calcium assay); for inhibition at 2 µg/mL: 2 μg/ml compound preincubated 1 h with 5 nM CCL22, read-out: inhibition of CCL22-induced calcium responses (primary screen). In kind it is cell-based. As to the method: (§1) EGFP-CCR4^+Gqi5^+HEKcells were loaded with fluorescent Ca^2+-indicator Indo-1 AM (5μM, Interchim) for 45 min at 37 °C. […] Cells (100,000 cells/well, 100μl) were seeded in black clear bottom 96-well plates (Greiner), and centrifuged at 250 × g for 5 min.
(§2) Two plates (96-well plates, Greiner) were prepared for the screen: one containing test compounds alone in order to determine their direct agonistic activity, and another one containing test compounds mixed with CCL17 or CCL22 at room temperature for 1 h (neutraligand protocol). The chemokines and test compounds were prepared at a 3× concentration, while digitonin was prepared at a 4× concentration. The CCR4 antagonist, C-021 served as control in the experiment. In the antagonist protocol, compounds were added to the cell plate (one compound per well) and incubated with cells for 30 min at room temperature, while the agonist (CCL17 or CCL22) was added to the ligand plate only.
(§3) Dye loaded cells were placed in the FlexStation 3 (Molecular Devices). […] For the primary screening, the ligands (50μl of chemokine mixed with DMSO or test compounds) were added to the cells at 40 s, followed by digitonin addition (50μl) at 100 s to the cells. Molecules were screened at a final concentration of 2μg/ml with 5 nM CCL17 or CCL22. […] The calcium response values (height of peak response over baseline) were determined. Hits were selected by comparing the response amplitude at the time of the chemokine addition ± test compound. The Z’ factor[29] was calculated according to the following equation: Z’ = 1-(3SD+ + 3SD−)/|Ave+ − Ave−|, where SD+ and Ave+ are respectively the standard deviation and the mean value of the positive controls (chemokine + DMSO), while SD− and Ave− are respectively the standard deviation and the mean value of the negative controls (HEPES-BSA (0.1%) mixed with DMSO, or cells mixed with C-021). Hit molecules were confirmed by performing concentration-response curves and their half maximal inhibitory concentration (IC50) values were calculated using the Kaleidagraph software.

A further series has as its target T2, CCL17 (Homo sapiens, UniProt Q92583).
T2 construct: codes for the mature CCL17 or CCL22 with an N-terminal thioredoxin-hexahistidin (TRX- (His)6) tag; thioredoxin (TRX) (N, cleaved yes); (His)6 (N, cleaved yes); made in house; host or cells: E. coli BL21 (DE3)
T2 sequence (Q92583 24-94): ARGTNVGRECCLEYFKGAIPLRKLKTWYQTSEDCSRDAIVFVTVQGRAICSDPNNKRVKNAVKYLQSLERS
In words: TRIC-r calcium assay, neutraligand protocol: compound preincubated with CCL17, EGFP-CCR4+Gqi5+ HEK cells. In kind it is cell-based. The note with it: for IC50: 5 nM CCL17 preincubated 1 h with compound, 21 °C, read-out: IC50 for CCL17 neutralization (calcium assay); for inhibition at 2 µg/mL: 2 μg/ml compound preincubated 1 h with 5 nM CCL17, read-out: inhibition of CCL17-induced calcium responses (primary screen). As to the method: as §1, §2, §3

A short description of series [1]: Solubility measurements (RP-HPLC). In kind it is physicochemical. Particulars: dissolved at 10 µM, room temperature; for solubility at 1 h: kinetic from dmso stock. The method, then:
Standard stock solutions of compounds (10mM) were prepared in DMSO, and the molecules were dissolved at a concentration of 10µM in each of the three buffers. The samples were shaken for 1h at room temperature, and centrifuged at 15,000×g . The compounds concentration in the supernatant solutions was determined using RP-HPLC (Gilson) technique. The measurements were done with a UV detector set at 230nm. The measurements were carried out at room temperature using a C18 column ([…], 50×4.6mm, Phenomenex). The aqueous mobile phase contained 0.05% trifluoroacetic acid (solvent A, Sigma-Aldrich). The organic phase was HPLC grade acetonitrile (Sigma-Aldrich CHROMASOLV) (solvent B). The mobile phase flow rate was 2ml/min, and the following program was applied for the elution: 0–0.1min, 5% B; 0.1–2.6min, 5–95% B; 2.6–3.1min, 95% B; 3.1–3.3min, 95–5% B; and 3.3–6min, 5% B. To establish external calibration curves, increasing concentrations of each compound were prepared from standard stock solutions.
The chromatograms were recorded by injecting 20µl of each standard solution, and the calibration curves were plotted using peak areas. […]

Another series concerns HUT78 T cells. In words: WST-1 metabolic activity assay. In kind it is cell-based, human. Particulars: 30 μM, 72 h. From the text:
WST-1 metabolic activity assay
The colorimetric WST-1 cell metabolic assay (Ozyme) was used to assess the cytotoxic effect of chemokine neutraligands. This is a cell viability test based on the enzymatic cleavage by the mitochondrial succinate-tetrazolium reductase of a tetrazolium salt, WST-1 (4-[3-(4-Iodophenyl)-2-(4-nitrophenyl)-2H-5-tetrazolio]-1,3 benzene disulfonate), into a water- […]
soluble formazan dye which can be detected by absorbance at 420-480nm. HUT78 T cells (or HaCat cells) were seeded on 24-well plates (200,000 cells per well) and were incubated […]
concentration ≤1% on cells). The background control was reserved as one well containing the culture medium only. The plates were incubated for 72h at 37°C. Three days later, the medium containing the neutraligands was removed, and WST-1 reagent (1:10 final dilution) (Ozyme) was added to each well for a 2h incubation at 37°C as the manufacturer’s recommendation. The plates were shaken and absorbance was measured at 450nm (reference wavelength 690nm) against the background control, using a multiwell plate reader (EnVision, Perkin Elmer). Assays were performed as three independent replicates. […]
(Heidelberg, Germany) and was cultured in Dulbecco’s Modified Eagle Medium (DMEM) (Invitrogen) supplemented with 10% fetal bovine serum (FBS) (Gibco-BRL), 100U/ml penicillin (Invitrogen), 100µg/ml streptomycin (Invitrogen) and 2mM L-glutamine (Invitrogen) at 37°C and 5% CO 2. The cells received fresh medium every other day and were subcultured every 10 days. HaCat cells were seeded in a 24-well plate (ESSEN Bioscience) at a density of 200,000 cells per well, and were allowed to grow until confluence. A scratch wound along the cell monolayer was created using the Essen woundmakerTM. Cells were washed twice with PBS to remove detached cells, and were treated with serum-free culture medium in the absence or presence of 100ng/ml chemokine (CCL22 or CCL17) preincubated with DMSO or […]
The molecules were also tested alone […]
without the chemokine. […] One […]
µg/ml of mitomycin C (Sigma-Aldrich) was added throughout the experiment in order to block cell proliferation. Once treated, the cells were immediately placed into the IncuCyteTM live-cell imaging, and the cell migration onto the wounded area was examined for 72h. Phase-contrast images acquired for each sample were captured every 2h (objective lens x10), and […]

In series [2] the target is T3, EGFP-CCR4 on HEK cells (human) (UniProt P51679).
T3 sequence: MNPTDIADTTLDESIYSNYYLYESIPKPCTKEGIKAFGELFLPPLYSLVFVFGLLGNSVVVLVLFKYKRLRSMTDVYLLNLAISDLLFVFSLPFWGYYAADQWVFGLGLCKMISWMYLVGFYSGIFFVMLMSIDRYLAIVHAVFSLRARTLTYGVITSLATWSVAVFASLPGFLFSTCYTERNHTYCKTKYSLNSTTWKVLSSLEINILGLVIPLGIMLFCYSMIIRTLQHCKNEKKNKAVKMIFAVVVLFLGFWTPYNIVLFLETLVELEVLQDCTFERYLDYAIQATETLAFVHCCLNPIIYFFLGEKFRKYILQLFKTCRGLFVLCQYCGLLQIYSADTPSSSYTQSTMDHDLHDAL

Where [3] appears, read: HEK293, compound 5 µM, read-out: Inhibition of CCL22 calcium responses (%).
Where [4] appears, read: HEK293, compound 5 µM, read-out: Inhibition of CCL17 calcium responses (%).
[5] abbreviates: HEPES buffer, aqueous buffer, read-out: solubility in HEPES buffer.
[6] abbreviates: complete cell culture medium, plasma or biological fluid, read-out: solubility in the cell culture medium.

The inhibition is the drop in the measured response relative to a control, in per cent. Broadly, the IC50 is the concentration needed to halve the response being measured. For orientation: solubility means the concentration that dissolves in the medium under given conditions.

≈ marks a conversion by molar mass, not a printed value. Where two headings read alike, the source gives them in different places.

For `Cn1c(=O)c2c(ncn2C)n(C)c1=O` [Caffeine, reference compound], the inhibition at 5 µM at CCL22 (setting [3]) and on CCL17 (setting [4]) was 0% each time. Further, the “Inhibition of CCL17 calcium responses (%)” value on CCL17 (compound 5 µM) is “no effect”.
Take `COc1ccc([C@@H](C)C(=O)c2ccc(O)cc2O)cc1` [GPN025, (R)-1-(2,4-dihydroxyphenyl)-2-(4-methoxyphenyl)propan-1-one]: the IC50 on CCL22 stood at 10600 ± 3700 nM. In addition, the inhibition at 2 µg/mL at CCL22 (HEK293) amounted to 44%. The solubility at 1 h in series [1] (setting [5]) and in series [1] (setting [6]) was > 10 µM each time. In addition, in the series with HUT78 T cells, the “inhibition of HUT78 cell metabolic activity” value was found to be 81.3%.
Consider `COc1cc(C2=N/C(=C\c3ccccc3)C(=O)O2)cc(OC)c1OC` [GPN251, (Z)-4-benzylidene-2-(3,4,5-trimethoxyphenyl)oxazol-5(4H)-one], for which the half-maximal inhibitory concentration (IC50) on CCL17 amounted to 900 ± 100 nM. Besides, on CCL17 (HEK293), the inhibition at 2 µg/mL came to 53%. The solubility at 1 h in series [1] (setting [5]) came to 0.7 µM (≈ 0.238 µg/mL). In series [1] (1 h), the “solubility in the cell culture medium” value is given as “not detected as a free molecule”.
With `CN1C(=O)N(C)C2=NNC=NC2(O)C1=O` (centres unmarked) [GPN355, 4a-hydroxy-6,8-dimethyl-6,8-dihydropyrimido[5,4-e][1,2, 4]triazine-5,7(2H, 4aH)-dione], the IC50 worked out at 200 nM at CCL22 and 9600 ± 900 nM at CCL17. Also, the values for the inhibition at 2 µg/mL on CCL22 (HEK293) and on CCL17 (HEK293) were 100% and 42%, respectively. Moreover, the solubility at 1 h in series [1] (setting [5]) and in series [1] (setting [6]) was > 10 µM each time. Further, the “inhibition of HUT78 cell metabolic activity” value in the series on HUT78 T cells was 23.1%.
For `O=C(O)c1ccccc1O` [GPN0001207], the “Inhibition of CCL22 calcium responses (%)” value on CCL22 (compound 5 µM, 5 µM) was 0.0%; at CCL22 (compound 5 µM, listed as GPN001207, 5 µM), “no inhibitory effect”. Moreover, the “Inhibition of CCL17 calcium responses (%)” value on CCL17 (compound 5 µM) is 0.0%.
With `CC(C)Cn1c(=O)n(C)c(=O)c2[nH]cnc21` [IBMX, 3-isobutyl-1-methyl xanthine, reference compound], the inhibition at 5 µM on CCL22 (setting [3]) and on CCL17 (setting [4]) was 0% each time. For the same molecule, the “Inhibition of CCL17 calcium responses (%)” value on CCL17 (compound 5 µM) is “no effect”.
For the molecule `Cn1c(=O)c2[nH]cnc2n(C)c1=O` [Theophylline, reference compound], the inhibition at 5 µM was found to be 0% on CCL22 (HEK293, read-out: Inhibition of CCL22 calcium responses (%)) and 0% at CCL17 (HEK293, read-out: Inhibition of CCL17 calcium responses (%)). Further, the “Inhibition of CCL17 calcium responses (%)” value on CCL17 (compound 5 µM) was “no effect”.
Turning to `CC(=O)Oc1ccccc1C(=O)O` [aspirin, Acetylsalicylic acid, reference compound], the inhibition at 5 µM on CCL22 (setting [3]) and on CCL17 (setting [4]) was 0% throughout.
For the molecule “recombinant human CCL17 (from UniProt Q92583 24-94) (ligand)”, the EC50 of calcium responses in EGFP-CCR4+ Gqi5+ HEK cells at 21 °C in series [2] stood at 3.7 nM.

B1: recombinant human CCL22 (ligand)
chain: T1 sequence (O00626 25-93)
As for B1, in series [2], the EC50 of calcium responses in EGFP-CCR4+ Gqi5+ HEK cells at 21 °C worked out at 2.9 nM.
